Common to all, as to assay: DTP human tumour cell line panel, 48 h
The subject of test [1] is OVCAR-5.
The subject of test [2] is HCT-15.
Test [3] has as its system RXF 393.
In test [4] the test system is IGROV-1.
Test [5] has as its system OVCAR-8.
The test system of test [6] is OVCAR-4.
The test system of test [7] is RPMI-8226.
The test system of test [8] is HCC 2998.
Test [9] deals with SK-OV-3.
Test [10] deals with SK-MEL-2.
Test [11] relates to A498.
In test [12] the test system is Malme-3M.
For test [13], the system named is NCI-H23.
In test [14] the test system is HOP-62.
Test [15] concerns UO-31.
Test [16] deals with HCT-116.
For test [17], the system named is NCI/ADR-RES.
Test [18] deals with TK-10.
Test [19] concerns M14.
In test [20] the test system is SR.

By GI50 is commonly meant the concentration at which growth is held to half of that of the control.

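Test compounds were applied to cells in 96-well plates for 48 hours at 5 doses. Abbreviation: GI50, concentration required for 50% inhibition of growth.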 Active and inactive are the calls of the source. Rule as the data show it: active = GI50 up to about 1.1 µM and inactive = higher.

For the compound `COc1nc(O)c(N)c(NC2OC(CO)C(O)C(O)C2O)n1` (stereo not given), the GI50 in test [1] was > 100 µM (inactive); in test [2], > 100 µM; in test [3], > 100 µM (inactive); in test [4] it was > 100 µM (inactive); in test [5], > 100 µM (inactive); in [6], > 100 µM (inactive). The GI50 in [7], in test [8], in [9], in test [10], in test [11] and in test [12] was > 100 µM (inactive) throughout. The GI50 in test [13], in [14], in test [15], in test [16] and in test [17] was > 100 µM (inactive) in each case.
As for `CCC(C(C)N1CC(=O)NC(=O)C1)N1CC(=O)NC(=O)C1` (stereo not given), the GI50 was > 25.1 µM (inactive) in [1]; > 49.7 µM in test [2]; > 100 µM (inactive) in test [3]; > 100 µM (inactive) in [4]; > 100 µM (inactive) in test [5]; > 100 µM (inactive) in [6]. The GI50 in test [7] was 97.5 µM (inactive); in [8], > 61.4 µM (inactive); in [9], > 100 µM (inactive); in test [10], > 100 µM (inactive); in test [11] it was > 100 µM (inactive); in test [12] it was 13.4 µM (inactive). In addition, the GI50 in [13] was 29 µM (inactive); in [14], 7.01 µM (inactive); in test [15] it was > 37.5 µM (inactive); in test [16] it was 23.4 µM (inactive); in [17] it was 44.8 µM (inactive).
As to `CCCCSCC(NC(=O)/C=C/c1c(C)[nH]c(=O)[nH]c1=O)C(=O)OC` (stereo not given), the GI50 in test [1] is 77.1 µM (inactive); in [2], 148 µM; in test [3], 56.5 µM (inactive); in test [4], 84.5 µM (inactive); in [5] it was 37.9 µM (inactive); in [6], 13.8 µM (inactive). In addition, the GI50 is 104 µM (inactive) in test [7]; 29 µM (inactive) in test [8]; 45.4 µM (inactive) in test [9]; 25.2 µM (inactive) in test [10]; 79.6 µM (inactive) in test [11]; 15.7 µM (inactive) in [12]. The GI50 was 90.8 µM (inactive) in test [13]; 70.5 µM (inactive) in test [14]; 49.4 µM (inactive) in [15]; 30.3 µM (inactive) in [16]; 358 µM (inactive) in test [17].
`O=C(O)C1Cc2c([nH]c3ccccc23)C=N1` (stereo not given): the GI50 was > 100 µM (inactive) in test [1]; > 100 µM in test [2]; > 100 µM (inactive) in [3]; > 100 µM (inactive) in test [4]; > 100 µM (inactive) in test [5]; > 100 µM (inactive) in test [6]. Moreover, the GI50 in [7], in test [8], in test [9], in test [10], in test [11] and in test [12] was > 100 µM (inactive) in each case. Also, the GI50 in test [13], in test [14], in [15], in test [16] and in [17] was > 100 µM (inactive) in each case.
For the compound `CC1CN=C(N(C(=O)Nc2ccc(Cl)c(Cl)c2)c2ccccc2)S1` (stereo not given), the GI50 was > 100 µM (inactive) in test [1]; 27 µM in [2]; > 100 µM (inactive) in [4]; 87.1 µM (inactive) in test [5]; 41.4 µM (inactive) in test [6]; 64.9 µM (inactive) in [7]. In addition, the GI50 in test [8] is 33.6 µM (inactive); in test [10], 23 µM (inactive); in [11], > 100 µM (inactive); in test [18] it was 38.9 µM (inactive); in test [12], 76.7 µM (inactive); in [19], 35.3 µM (inactive). In addition, the GI50 in test [13] is 64.9 µM (inactive); in test [14], > 100 µM (inactive); in test [15], > 100 µM (inactive); in test [16], 42.6 µM (inactive); in [17], 34.8 µM (inactive).
Regarding `CC1(C)N=C(C2CCCN2C(=O)OCc2ccccc2)OC1=O` (stereo not given), the GI50 in test [1] is > 100 µM (inactive); in test [2] it was > 100 µM; in test [3], 30 µM (inactive); in test [4] it was > 100 µM (inactive); in test [5], > 100 µM (inactive); in [7] it was > 100 µM (inactive). The GI50 in test [8], in [9], in test [10], in [11], in test [18] and in [12] was > 100 µM (inactive) each time. Further, the GI50 in test [19], in test [13], in test [14], in test [15], in [16] and in [17] was > 100 µM (inactive) throughout.
For `Fc1ccccc1C1SCc2nc3cc4ccccc4cc3n21` (stereo not given), the GI50 is > 100 µM (inactive) in test [1]; 94.8 µM in test [2]; 13.3 µM (inactive) in test [3]; 62.5 µM (inactive) in [4]; 36.6 µM (inactive) in test [5]; 35.1 µM (inactive) in test [6]. The GI50 is > 100 µM (inactive) in test [7]; 72.6 µM (inactive) in test [8]; 71.6 µM (inactive) in test [9]; > 100 µM (inactive) in [10]; 63.8 µM (inactive) in test [18]; > 100 µM (inactive) in test [12]. In addition, the GI50 in [19] was > 100 µM (inactive); in test [13], > 100 µM (inactive); in test [14], > 100 µM (inactive); in [15] it was > 100 µM (inactive); in test [16], 24.9 µM (inactive); in test [17], 49.1 µM (inactive).
Consider `[O-][n+]1ccccc1S` [PYRITHIONE ZINC], for which the GI50 in test [1] is 5.55 µM (inactive); in test [2] it was 0.577 µM; in test [3], 0.135 µM (active); in test [4] it was 1.14 µM (inactive); in [5], 3.01 µM (inactive); in test [20] it was 0.168 µM (active). In addition, the GI50 was 0.542 µM (active) in [6]; 0.1 µM (active) in test [7]; 0.452 µM (active) in [8]; 17.4 µM (inactive) in test [9]; 1.49 µM (inactive) in [10]; 0.796 µM (active) in test [11]. The GI50 in [18] was 10.1 µM (inactive); in [12], 2.45 µM (inactive); in [19] it was 1.25 µM (inactive); in [13] it was 1.21 µM (inactive); in [14], 4.34 µM (inactive); in test [15], 2.43 µM (inactive). For the same compound, the GI50 in test [16] is 0.5 µM (active).
